Data reported in article PMC8016998, “Identification of potential therapeutic antimicrobial peptides against Acinetobacter baumannii in a mouse model of pneumonia” (Scientific Reports, 2021).
Blank lines part the entries; values can stand above or below the substance they belong to. No end group written: not given here.

How the values were obtained:
[1] = tested on: MDRAB clinical strain U80; type: cell-based, Acinetobacter baumannii; conditions: 24 h
Method: (§1) MBC were determined by extending the MIC procedure in sterilized 96-well polypropylene microtiter plates according to the broth microdilution guidelines of the Clinical and Laboratory Standards Institute with some modification[47]. […] In addition, 10 µL was drawn from each well with no visible turbidity onto LB agar plates and incubated for 24 h at 37 °C. The lowest concentration showing no visible growth on agar subculture was used as the MBC value. All experiments were performed in triplicate.

[2] = tested on: Acinetobacter baumannii 19,606; type: cell-based; conditions: 19,606, 24 h
[3] = tested on: MDRAB clinical strain AF93; type: cell-based, Acinetobacter baumannii; conditions: 24 h
Method: as §1

[4] = tested on: MDRAB clinical strain AK61; type: cell-based, Acinetobacter baumannii; conditions: 24 h
Method: as §1

[5] = tested on: MDRAB clinical strain J49; type: cell-based, Acinetobacter baumannii; conditions: 24 h
Method: as §1

MDRAB clinical strain K2 = type: cell-based, Acinetobacter baumannii; conditions: 24 h
Method: as §1

[6] = tested on: MDRAB clinical strain AF11; type: cell-based, Acinetobacter baumannii; conditions: 24 h
[7] = tested on: MDRAB clinical strain D29; type: cell-based, Acinetobacter baumannii; conditions: 24 h
Method: as §1

[8] = tested on: MDRAB clinical strain AN10; type: cell-based, Acinetobacter baumannii; conditions: 24 h
[9] = tested on: MDRAB clinical strain U95; type: cell-based, Acinetobacter baumannii; conditions: 24 h
Method: as §1

[10] = tested on: MDRAB clinical strain Y92; type: cell-based, Acinetobacter baumannii; conditions: 24 h
Method: as §1

[11] = tested on: MDRAB clinical strain AO80; type: cell-based, Acinetobacter baumannii; conditions: 24 h
Method: as §1

MDRAB clinical strains = type: cell-based, Acinetobacter baumannii; conditions: 24 h
Method: as §1

[12] = tested on: MDRAB clinical strain W11; type: cell-based, Acinetobacter baumannii; conditions: 24 h
Method: as §1

[13] = tested on: MDRAB clinical strain AZ93; type: cell-based, Acinetobacter baumannii; conditions: 24 h
Method: as §1

[14] = tested on: MDRAB clinical strain AG51; type: cell-based, Acinetobacter baumannii; conditions: 24 h
[15] = tested on: MDRAB clinical strain AE5; type: cell-based, Acinetobacter baumannii; conditions: 24 h
Method: as §1

[16] = tested on: MDRAB clinical strain AE6; type: cell-based, Acinetobacter baumannii; conditions: 24 h
Method: as §1

[17] = tested on: MDRAB clinical strain AF12; type: cell-based, Acinetobacter baumannii; conditions: 24 h
Method: as §1

[18] = tested on: Acinetobacter baumannii 17,978; type: cell-based; conditions: 17,978, 24 h;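 also: CLSI broth microdilution in 96-well polypropylene plates, MBC taken as lowest concentration giving no growth when clear wells were subcultured on LB agar for 24 h at 37 °C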
Method: as §1

[19] = tested on: MDRAB clinical strain AS40; type: cell-based, Acinetobacter baumannii; conditions: 24 h
Method: as §1

[20] = tested on: MDRAB clinical strain L87; type: cell-based, Acinetobacter baumannii; conditions: 24 h
Method: as §1

[21] = tested on: MDRAB clinical strain O59; type: cell-based, Acinetobacter baumannii; conditions: 24 h
Method: as §1

[22] = tested on: MDRAB clinical strain AK29; type: cell-based, Acinetobacter baumannii; conditions: 24 h
Method: as §1

[23] = tested on: MDRAB clinical strain AL87; type: cell-based, Acinetobacter baumannii; conditions: 24 h
Method: as §1

Substance: GIKIAKKAITIAKKIAKIYW [GW-Q6]
- MBC [1]: 16 µg/mL
- MIC [1]: 16 µg/mL
- MBC [2]: 16 µg/mL
- MIC [2]: 16 µg/mL
- MBC [3]: 16 µg/mL
- MIC [3]: 8 µg/mL
- MBC [4]: 16 µg/mL
- MIC [4]: 16 µg/mL
- MBC [5]: 16 µg/mL
- MIC [5]: 16 µg/mL
- MBC (MDRAB clinical strain K2): 8 µg/mL
- MIC (MDRAB clinical strain K2): 8 µg/mL
- MBC [6]: 8 µg/mL
- MIC [6]: 8 µg/mL
- MBC [7]: 32 µg/mL
- MIC [7]: 16 µg/mL
- MBC [8]: 8 µg/mL
- MIC [8]: 8 µg/mL
- MBC [9]: 32 µg/mL
- MIC [9]: 16 µg/mL
- MBC [10]: 8 µg/mL
- MIC [10]: 8 µg/mL
- MBC [11]: 16 µg/mL
- MIC [11]: 16 µg/mL
- MBC (MDRAB clinical strains): 8 to 32 µg/mL
- MIC (MDRAB clinical strains): 8 to 16 µg/mL
- MBC [12]: 16 µg/mL
- MIC [12]: 16 µg/mL
- MBC [13]: 8 µg/mL
- MIC [13]: 8 µg/mL
- MBC [14]: 8 µg/mL
- MIC [14]: 8 µg/mL
- MBC [15]: 8 µg/mL
- MIC [15]: 8 µg/mL
- MBC [16]: 8 µg/mL
- MIC [16]: 8 µg/mL
- MBC [17]: 8 µg/mL
- MIC [17]: 8 µg/mL
- MBC [18]: 16 µg/mL
- MIC [18]: 16 µg/mL
- MBC [19]: 16 µg/mL
- MIC [19]: 16 µg/mL
- MBC [20]: 16 µg/mL
- MIC [20]: 16 µg/mL
- MBC [21]: 32 µg/mL
- MIC [21]: 16 µg/mL
- MBC [22]: 8 µg/mL
- MIC [22]: 8 µg/mL
- MBC [23]: 8 µg/mL
- MIC [23]: 8 µg/mL

Substance: GRFKRFRKKFKKLFKKLSPVIPLLHLG [BMAP-27]
- MBC [1]: 16 µg/mL
- MIC [1]: 8 µg/mL
- MBC [2]: 8 µg/mL
- MIC [2]: 8 µg/mL
- MBC [3]: 8 µg/mL
- MIC [3]: 8 µg/mL
- MBC [4]: 8 µg/mL
- MIC [4]: 8 µg/mL
- MBC [5]: 8 µg/mL
- MIC [5]: 8 µg/mL
- MBC (MDRAB clinical strain K2): 32 µg/mL
- MIC (MDRAB clinical strain K2): 16 µg/mL
- MBC [6]: 16 µg/mL
- MIC [6]: 8 µg/mL
- MBC [7]: 16 µg/mL
- MIC [7]: 16 µg/mL
- MBC [8]: 4 µg/mL
- MIC [8]: 4 µg/mL
- MBC [9]: 16 µg/mL
- MIC [9]: 16 µg/mL
- MBC [10]: 8 µg/mL
- MIC [10]: 8 µg/mL
- MBC [11]: 8 µg/mL
- MIC [11]: 8 µg/mL
- MIC (MDRAB clinical strains): 4 to 16 µg/mL
- MBC [12]: 16 µg/mL
- MIC [12]: 16 µg/mL
- MBC [13]: 8 µg/mL
- MIC [13]: 8 µg/mL
- MBC [14]: 8 µg/mL
- MIC [14]: 4 µg/mL
- MBC [15]: 16 µg/mL
- MIC [15]: 8 µg/mL
- MBC [16]: 16 µg/mL
- MIC [16]: 16 µg/mL
- MBC [17]: 8 µg/mL
- MIC [17]: 8 µg/mL
- MBC [18]: 16 µg/mL
- MIC [18]: 16 µg/mL
- MBC [19]: 8 µg/mL
- MIC [19]: 8 µg/mL
- MBC [20]: 16 µg/mL
- MIC [20]: 16 µg/mL
- MBC [21]: 16 µg/mL
- MIC [21]: 16 µg/mL
- MBC [22]: 8 µg/mL
- MIC [22]: 4 µg/mL
- MBC [23]: 8 µg/mL
- MIC [23]: 8 µg/mL

Substance: GWGSFFKKAAHVGKHVGKAALTHYL-NH2 [Pleurocidin]
- MBC [1]: 16 µg/mL
- MIC [1]: 16 µg/mL
- MBC [2]: 16 µg/mL
- MIC [2]: 16 µg/mL
- MBC [3]: 16 µg/mL
- MIC [3]: 8 µg/mL
- MBC [4]: 16 µg/mL
- MIC [4]: 16 µg/mL
- MBC [5]: 16 µg/mL
- MIC [5]: 16 µg/mL
- MBC (MDRAB clinical strain K2): 32 µg/mL
- MIC (MDRAB clinical strain K2): 16 µg/mL
- MBC [6]: 16 µg/mL
- MIC [6]: 8 µg/mL
- MBC [7]: 32 µg/mL
- MIC [7]: 16 µg/mL
- MBC [8]: 16 µg/mL
- MIC [8]: 16 µg/mL
- MBC [9]: 32 µg/mL
- MIC [9]: 32 µg/mL
- MBC [10]: 8 µg/mL
- MIC [10]: 8 µg/mL
- MBC [11]: 8 µg/mL
- MIC [11]: 8 µg/mL
- MBC (MDRAB clinical strains): 8 to 32 µg/mL
- MIC (MDRAB clinical strains): 8 to 32 µg/mL
- MBC [12]: 16 µg/mL
- MIC [12]: 16 µg/mL
- MBC [13]: 8 µg/mL
- MIC [13]: 8 µg/mL
- MBC [14]: 8 µg/mL
- MIC [14]: 8 µg/mL
- MBC [15]: 16 µg/mL
- MIC [15]: 16 µg/mL
- MBC [16]: 16 µg/mL
- MIC [16]: 16 µg/mL
- MBC [17]: 8 µg/mL
- MIC [17]: 8 µg/mL
- MBC [18]: 16 µg/mL
- MIC [18]: 16 µg/mL
- MBC [19]: 8 µg/mL
- MIC [19]: 8 µg/mL
- MBC [20]: 32 µg/mL
- MIC [20]: 32 µg/mL
- MBC [21]: 16 µg/mL
- MIC [21]: 16 µg/mL
- MBC [22]: 16 µg/mL
- MIC [22]: 8 µg/mL
- MBC [23]: 8 µg/mL
- MIC [23]: 8 µg/mL

The next lines start with results.

- MIC [1]: 16 µg/mL
- MIC [2]: 8 µg/mL
- MIC [3]: 16 µg/mL
- MIC [4]: 8 µg/mL
- MIC [5]: 16 µg/mL
- MIC (MDRAB clinical strain K2): 32 µg/mL
- MIC [6]: 16 µg/mL
- MIC [7]: 16 µg/mL
- MIC [8]: 8 µg/mL
- MIC [9]: 32 µg/mL
- MIC [10]: 16 µg/mL
- MIC [11]: 8 µg/mL
- MIC (MDRAB clinical strains): 8 to 32 µg/mL
- MIC [12]: 16 µg/mL
- MIC [13]: 8 µg/mL
- MIC [14]: 8 µg/mL
- MIC [15]: 16 µg/mL
- MIC [16]: 16 µg/mL
- MIC [17]: 8 µg/mL
- MIC [18]: 32 µg/mL
- MIC [19]: 8 µg/mL
- MIC [20]: 16 µg/mL
- MIC [21]: 32 µg/mL
- MIC [22]: 8 µg/mL
- MIC [23]: 8 µg/mL
Substance: GAKYAKIIYNYLKKIANALW [GW-A2]
- MBC [1]: 16 µg/mL
- MBC [2]: 8 µg/mL
- MBC [3]: 16 µg/mL
- MBC [4]: 8 µg/mL
- MBC [5]: 16 µg/mL
- MBC (MDRAB clinical strain K2): 64 µg/mL
- MBC [6]: 32 µg/mL
- MBC [7]: 16 µg/mL
- MBC [8]: 8 µg/mL
- MBC [9]: 64 µg/mL
- MBC [10]: 16 µg/mL
- MBC [11]: 16 µg/mL
- MBC (MDRAB clinical strains): 8 to 64 µg/mL
- MBC [12]: 16 µg/mL
- MBC [13]: 16 µg/mL
- MBC [14]: 8 µg/mL
- MBC [15]: 16 µg/mL
- MBC [16]: 32 µg/mL
- MBC [17]: 8 µg/mL
- MBC [18]: 32 µg/mL
- MBC [19]: 16 µg/mL
- MBC [20]: 16 µg/mL
- MBC [21]: 32 µg/mL
- MBC [22]: 8 µg/mL
- MBC [23]: 8 µg/mL

- MIC [1]: 32 µg/mL
- MIC [2]: 16 µg/mL
- MIC [3]: 16 µg/mL
- MIC [4]: 32 µg/mL
- MIC [5]: 16 µg/mL
- MIC (MDRAB clinical strain K2): 16 µg/mL
- MIC [6]: 16 µg/mL
- MIC [7]: 16 µg/mL
- MIC [8]: 8 µg/mL
- MIC [9]: 32 µg/mL
- MIC [10]: 16 µg/mL
- MIC [11]: 32 µg/mL
- MIC (MDRAB clinical strains): 8 to 32 µg/mL
- MIC [12]: 16 µg/mL
- MIC [13]: 32 µg/mL
- MIC [14]: 8 µg/mL
- MIC [15]: 16 µg/mL
- MIC [16]: 16 µg/mL
- MIC [17]: 8 µg/mL
- MIC [18]: 16 µg/mL
- MIC [19]: 32 µg/mL
- MIC [20]: 32 µg/mL
- MIC [21]: 32 µg/mL
- MIC [22]: 8 µg/mL
- MIC [23]: 8 µg/mL
Substance: GWKKWFNRAKKVGKTVGGLAVDHYL-NH2 [NRC12]
- MBC [1]: 32 µg/mL
- MBC [2]: 16 µg/mL
- MBC [3]: 16 µg/mL
- MBC [4]: 32 µg/mL
- MBC [5]: 16 µg/mL
- MBC (MDRAB clinical strain K2): 32 µg/mL
- MBC [6]: 16 µg/mL
- MBC [7]: 16 µg/mL
- MBC [8]: 8 µg/mL
- MBC [9]: 32 µg/mL
- MBC [10]: 16 µg/mL
- MBC [11]: 32 µg/mL
- MBC (MDRAB clinical strains): 8 to 32 µg/mL
- MBC [12]: 16 µg/mL
- MBC [13]: 32 µg/mL
- MBC [14]: 8 µg/mL
- MBC [15]: 16 µg/mL
- MBC [16]: 16 µg/mL
- MBC [17]: 16 µg/mL
- MBC [18]: 16 µg/mL
- MBC [19]: 32 µg/mL
- MBC [20]: 32 µg/mL
- MBC [21]: 32 µg/mL
- MBC [22]: 8 µg/mL
- MBC [23]: 8 µg/mL
